{
  "source": "patent US20230016479A1",
  "about": "“METHOD FOR PREPARING MESENCHYMAL STEM CELLS HAVING IMPROVED VIABILITY THROUGH ANTI-CANCER VIRUS INTRODUCTION” (priority 2019, published 2023)",
  "system": "ViroSTEM (mesenchymal stem cells into which measles virus has been introduced)",
  "assay": "Viability of ViroSTEM cold-stored in 30% autologous serum-containing physiological saline treated with aspirin",
  "format": "cell-based, human",
  "experimental": "While ViroSTEM, which is mesenchymal stem cells into which measles virus has been introduced, was cold-stored in physiological saline containing aspirin and 30% autologous serum for 5 days, it was treated with aspirin at a concentration of 10 μg/ml to 100 μg/ml.\nThe period of time during which ViroSTEM cold-stored in physiological saline containing 50 μg/ml aspirin and 30% autologous serum was maintained as described above increased to 80 hours, indicating the stability of the virus in ViroSTEM cold-stored for 80 hours. After cold storage of ViroSTEM for 80 hours, the stem cells were cultured and then observed under a fluorescence microscope.",
  "data": [
    {"smiles": "CC(=O)Oc1ccccc1C(=O)O", "note": "[aspirin]", "values": [
      {"measurement": "viability at 50 µg/mL", "setting": "Homo sapiens, Mesenchymal stem cells, 72 h, aspirin 50 μg/ml, cold storage 3 days in physiological saline containing 30% autologous serum, without aspirin about 28.6%, read-out: cell viability of measles virus-infected stem cell therapeutic agent", "result": "≥ 88", "unit": "%"},
      {"measurement": "most effective concentration of aspirin", "setting": "tested 10 μg/ml to 100 μg/ml in vehicle containing autologous serum", "result": 50, "unit": "µg/mL"}
    ]}
  ]
}
